This test concerns 10E8 antibody. The experiment in a line: Competitive 10E8 ELISA binding assay. Also noted: species or system human.

As for “ELXKWAXLWNWFNITNZLWXIK (bicyclic or more) [SAH-MPER(662–683)(C,q)]”, the “10E8 Fab-binding activity (in words)” value is listed as “no binding activity”.

The values are drawn from publication PMC4304871 (Nature structural & molecular biology, 2014).
